Laboratory results reported in patent EP1311531B1, “STEROID DERIVED ANTIBIOTICS” (Brigham Young University, priority 2000, dated 2002).
In brackets after ≈: the same amount, converted by molar mass. Like-named read-outs stand apart in the source and are kept apart here.

How the values were obtained:
E. coli (ATCC 10798) [1] = experiment: MIC and MBC measurement; type: cell-based, Escherichia coli
Method: (§1) General: Microorganisms. Reference strains were purchased from the American Type Culture Collection (Rockville, MD) or Bactrol disks from Difeo Laboratories (Detroit, MI). […] Bacterial strains were maintained on Mueller-Hinton agar plates, and Candida albicans was maintained on Sabouraud Dextrose agar plates.
(§2) Aliquots (20 mL) of the homogeneous solution were then poured in sterile plastic petri dishes (100 x 15 mm, Fisher Scientific). Solutions of compounds were made by dissolving the HCl salt of the respective compound into an appropriate amount of deionized and sterilized water followed by microfiltration.
(§3) Aliquots of 1 mL of the suspension were added to test tubes containing 1 mL TSB and incrementally varied concentrations of cholic acid derivatives and/or erythromycin or novobiocin. […] Additionally, an alliquot from each of the samples showing no measurable turbidity was subcultured on TSA plates (alliquots were diluted to provide fewer than 300 CFU). Colonies that grew on the subculture after overnight incubation were counted and the number of CFU/mL in the samples were calculated. The calculated values were compared to the number of CFU/mL in the original inoculum.

E. coli (ATCC 10798) [2] = experiment: Sensitization to erythromycin or novobiocin (outer membrane permeabilization, FIC); type: cell-based, Escherichia coli; details: for (a) Concentration required to lower the MIC of erythromycin from 70 to 1 µg/mL / (b) MBC with 1 µg/mL erythromycin / (d) Concentration required to lower the MIC of novobiocin from >500 to 1 µg/mL / FIC^c (FIC values with erythromycin) / FIC^c (FIC values with novobiocin): Table 9, Escherichia coli (ATCC 10798); for MBC: Escherichia coli; for concentration required to lower the MIC of erythromycin from 70 µg/mL to 1 µg/mL: Table 2
Method: (§4) FICs can be performed by checkerboard titrations of compounds in one dimension of a microtiter plate, and of antibiotics in the other dimension, for example. The FIC is calculated by looking at the impact of one antibiotic on the MIC of the other and vice versa. […] Preferably, an FIC of less than 0.5 is obtained for synergism. As used herein, FIC can be determined as follows: FIC = (MIC(compound in combination))/(MIC(compound alone)) + (MIC(antibiotic in combination))/(MIC(antibiotic alone)) [formula]
(§5) Aliquots of 1 mL of the suspension were added to test tubes containing 1 mL TSB and incrementally varied concentrations of cholic acid derivatives and/or erythromycin or novobiocin. In the sensitization experiments, erythromycin or novobiocin were added 15 minutes later than the cholic acid derivatives. The samples were subjected to stationary incubation at 37°C for 24 hours. Sample turbidity was determined by measuring absorption at 760 nm (HP 8453 UV-Visible Chemstation, Hewlett Packard). Additionally, an alliquot from each of the samples showing no measurable turbidity was subcultured on TSA plates (alliquots were diluted to provide fewer than 300 CFU). Colonies that grew on the subculture after overnight incubation were counted and the number of CFU/mL in the samples were calculated. The calculated values were compared to the number of CFU/mL in the original inoculum.
They were also tested for the ability to permeabilize the outer membrane of Gram-negative bacteria, causing sensitization to hydrophobic antibiotics that cannot cross the outer membrane. The permeabilization of the outer membrane was measured using erythromycin and novobiocin.

[3] = tested on: Pseudomonas aeruginosa ATCC 27853; experiment: MIC and MBC measurement; type: cell-based
Method: as §1, §2, §3

[4] = tested on: Pseudomonas aeruginosa ATCC 27853; experiment: Sensitization to erythromycin, novobiocin or rifampicin (permeabilization, FIC); type: cell-based; details: Table 7; P. aureginosa (ATCC 27853); with erythromycin
Method: as §4, §5
Concentrations of 0.5, 1.0 or 3.0 µg/mL of these antibiotics were used, and the concentrations of the cholic acid derivatives required to inhibit bacterial growth of Gram-negative strains were determined.

[5] = tested on: Escherichia coli ATCC 25922; experiment: MIC and MBC measurement; type: cell-based; details: Escherichia coli, ATCC25922, antibiotic alone; E. coli (ATCC 25922); read-out: MIC
Excerpt: General: Microorganisms. Reference strains were purchased from the American Type Culture Collection (Rockville, MD) or Bactrol disks from Difeo Laboratories (Detroit, MI). The following specific ATCC strains were used: 10798 Escherichia coli, 25922 Escherichia coli, 13883 Klebsiella pneumoniae, 27853 Pseudomonas aeruginosa, 14028 Salmonella typhimurium, 29212 Enterococcus faecalis, 25923 Staphylococcus aureus, 19615 Streptococcus pyogenes, and 90028 Candida albicans. Bacterial strains were maintained on Mueller-Hinton agar plates, and Candida albicans was maintained on Sabouraud Dextrose agar plates.
Tryptic soy broth (TSB) was made by dissolving 27.5 grams of tryptic soy broth without dextrose (DIFCO Laboratories) in 1 liter of deionized water and sterilizing at 121 °C for 15 minutes. Solid agar (TSA) plates were made by dissolving 6.4 grams of tryptic soy broth and 12 grams of agar (purified grade, Fischer Scientific) in 800 mL of deionized water and sterilizing at 121 °C for 20 minutes. Aliquots (20 mL) of the homogeneous solution were then poured in sterile plastic petri dishes (100 x 15 mm, Fisher Scientific). Solutions of compounds were made by dissolving the HCl salt of the respective compound into an appropriate amount of deionized and sterilized water followed by microfiltration.
as §5, with “inoculum. […]” for “inoculum.”

[6] = ATCC10798, Table 9, Escherichia coli (ATCC 10798), read-out: MBC
[7] = ATCC10798, Table 9, Escherichia coli (ATCC 10798), read-out: MIC
[8] = ATCC27853, Table 6, P. aureginosa (ATCC 27853)
[9] = Escherichia coli, ATCC10798, Table 1, E. coli (ATCC 10798), read-out: MBC
[10] = Escherichia coli, ATCC10798, Table 1, E. coli (ATCC 10798), read-out: MIC
[11] = Table 9, Escherichia coli (ATCC 10798)
[12] = ATCC10798, Table 2, E. coli (ATCC 10798), with erythromycin
[13] = E. coli (ATCC 10798), with erythromycin
[14] = ATCC27853, antibiotic alone, P. aureginosa (ATCC 27853)
[15] = Escherichia coli, ATCC10798, antibiotic alone, E. coli (ATCC 10798), read-out: MIC

MIC (E. coli (ATCC 10798) [1]; [7])	MIC (E. coli (ATCC 10798) [1]; [10])	Compound	MBC (E. coli (ATCC 10798) [1]; [6])	(a) Concentration required to lower the MIC of erythromycin from 70 to 1 µg/mL (E. coli (ATCC 10798) [2])	(b) MBC with 1 µg/mL erythromycin (E. coli (ATCC 10798) [2])	(d) Concentration required to lower the MIC of novobiocin from >500 to 1 µg/mL (E. coli (ATCC 10798) [2])	FIC^c (FIC values with erythromycin) (E. coli (ATCC 10798) [2])	FIC^c (FIC values with novobiocin) (E. coli (ATCC 10798) [2])	concentration required to lower the MIC of erythromycin from 70 µg/mL to 1 µg/mL (E. coli (ATCC 10798) [2]; [13])	also measured
3 µg/mL (≈ 4.72 µM)	–	CCCCCOCCC[C@@H](C)[C@H]1CC[C@H]2[C@@H]3[C@H](OCCCN)C[C@@H]4C[C@H](OCCCN)CC[C@]4(C)[C@H]3C[C@H](OCCCN)[C@]12C [Compound 113]	5 µg/mL (≈ 7.86 µM)	0.8 µg/mL	2.0 µg/mL	1.0 µg/mL	0.28	0.27	–	–
70 µg/mL (≈ 130 µM)	–	C[C@H](CO)[C@H]1CC[C@H]2[C@@H]3[C@H](OCCCN)C[C@@H]4C[C@H](OCCCN)CC[C@]4(C)[C@H]3C[C@H](OCCCN)[C@]12C [Compound 108]	140 µg/mL (≈ 260 µM)	4.0 µg/mL	140 µg/mL	12 µg/mL	0.071	0.17	–	–
–	4 µg/mL (≈ 3.59 µM)	C[C@H](CCCOCCC[C@@H](C)[C@H]1CC[C@H]2[C@@H]3[C@H](OCCCN)C[C@@H]4C[C@H](OCCCN)CC[C@]4(C)[C@H]3C[C@H](OCCCN)[C@]12C)[C@H]1CC[C@H]2[C@@H]3[C@H](OCCCN)C[C@@H]4C[C@H](OCCCN)CC[C@]4(C)[C@H]3C[C@H](OCCCN)[C@]12C [Compound 12]	–	–	–	–	–	–	1.5 µg/mL	MBC (E. coli (ATCC 10798) [1]; [9]): 4 µg/mL (≈ 3.59 µM); MBC (E. coli (ATCC 10798) [2]; [12]): 2.5 µg/mL
70 µg/mL (≈ 127 µM)	–	C[C@H](CCO)[C@H]1CC[C@H]2[C@@H]3[C@H](OCCCN)C[C@@H]4C[C@H](OCCCN)CC[C@]4(C)[C@H]3C[C@H](OCCCN)[C@]12C [Compound 109]	120 µg/mL (≈ 217 µM)	4.0 µg/mL	80 µg/mL	15 µg/mL	0.071	0.22	–	–
30 µg/mL (≈ 51.7 µM)	–	COCCC[C@@H](C)[C@H]1CC[C@H]2[C@@H]3[C@H](OCCCN)C[C@@H]4C[C@H](OCCCN)CC[C@]4(C)[C@H]3C[C@H](OCCCN)[C@]12C [Compound 111]	33 µg/mL (≈ 56.9 µM)	1.0 µg/mL	20 µg/mL	2.0 µg/mL	0.048	0.069	–	–

Further lines, the molecule ahead of its results:

Compound	MIC (E. coli (ATCC 10798) [1]; [7])	MIC (E. coli (ATCC 10798) [1]; [10])	MBC (E. coli (ATCC 10798) [1]; [6])	(a) Concentration required to lower the MIC of erythromycin from 70 to 1 µg/mL (E. coli (ATCC 10798) [2])	(b) MBC with 1 µg/mL erythromycin (E. coli (ATCC 10798) [2])	(d) Concentration required to lower the MIC of novobiocin from >500 to 1 µg/mL (E. coli (ATCC 10798) [2])	FIC^c (FIC values with erythromycin) (E. coli (ATCC 10798) [2])	FIC^c (FIC values with novobiocin) (E. coli (ATCC 10798) [2])	concentration required to lower the MIC of erythromycin from 70 µg/mL to 1 µg/mL (E. coli (ATCC 10798) [2]; [13])	also measured
C[C@H](CCCOS(=O)(=O)O)[C@H]1CC[C@H]2[C@@H]3[C@H](OCCCN)C[C@@H]4C[C@H](OCCCN)CC[C@]4(C)[C@H]3C[C@H](OCCCN)[C@]12C [Compound 132]	–	–	–	–	–	–	–	–	–	MIC (E. coli (ATCC 10798) [1]; Escherichia coli, ATCC10798, E. coli (ATCC 10798), read-out: MIC): 60 µg/mL (≈ 92.9 µM); concentration required to lower the MIC of erythromycin to 1 µg/mL (E. coli (ATCC 10798) [2]; E. coli (ATCC 10798)): 4.0 µg/mL
CCCCCCCCOCCC[C@@H](C)[C@H]1CC[C@H]2[C@@H]3[C@H](OCCCN)C[C@@H]4C[C@H](OCCCN)CC[C@]4(C)[C@H]3C[C@H](OCCCN)[C@]12C [Compound 9]	–	3 µg/mL (≈ 4.42 µM)	–	3.0 µg/mL	3.0 µg/mL	–	1.0	–	3 µg/mL	MIC [3, 8]: 8 µg/mL (≈ 11.8 µM); concentration required to lower the MIC of erythromycin from 240 µg/mL to 5 µg/mL [4]: 5 µg/mL; MBC (E. coli (ATCC 10798) [1]; [9]): 10 µg/mL (≈ 14.7 µM); MBC (E. coli (ATCC 10798) [1]; [11]): 10 µg/mL (≈ 14.7 µM); MIC (E. coli (ATCC 10798) [1]; [11]): 3.0 µg/mL (≈ 4.42 µM); MBC (E. coli (ATCC 10798) [2]; [12]): 3 µg/mL
CO[C@@H]1[C@@H](OC(N)=O)[C@@H](O)[C@H](Oc2ccc3c(O)c(NC(=O)c4ccc(O)c(CC=C(C)C)c4)c(=O)oc3c2C)OC1(C)C [novobiocin, reference compound]	–	–	–	–	–	–	–	–	–	MIC [3, 14]: > 500 µg/mL; MIC (E. coli (ATCC 10798) [1]; [15]): > 500 µg/mL
C[C@H](CCCN(C)Cc1ccccc1)[C@H]1CC[C@H]2[C@@H]3[C@H](OCCN)C[C@@H]4C[C@@H](OCCN)CC[C@]4(C)[C@H]3C[C@H](OCCN)[C@]12C [Compound 8]	–	46 µg/mL (≈ 73.4 µM)	–	–	–	–	–	–	10 µg/mL	MIC [3, 8]: 50 µg/mL (≈ 79.7 µM); concentration required to lower the MIC of erythromycin from 240 µg/mL to 5 µg/mL [4]: 40 µg/mL
CC[C@H]1OC(=O)[C@H](C)[C@@H](O[C@H]2C[C@@](C)(OC)[C@@H](O)[C@H](C)O2)[C@H](C)[C@@H](O[C@@H]2O[C@H](C)C[C@H](N(C)C)[C@H]2O)[C@](C)(O)C[C@@H](C)C(=O)[C@H](C)[C@@H](O)[C@]1(C)O [erythromycin, reference compound]	–	–	–	–	–	–	–	–	–	MIC [3, 14]: 240 µg/mL (≈ 327 µM); MIC [5]: 30 µg/mL (≈ 40.9 µM); MIC (E. coli (ATCC 10798) [1]; [15]): 70 µg/mL (≈ 95.4 µM)
CC(O)[C@H]1CC[C@H]2[C@@H]3[C@H](OCCCN)C[C@@H]4C[C@H](OCCCN)CC[C@]4(C)[C@H]3C[C@H](OCCCN)[C@]12C (stereo partly shown) [Compound 11]	–	140 µg/mL (≈ 267 µM)	–	20 µg/mL	180 µg/mL	40 µg/mL	0.16	0.29	40 µg/mL	MBC (E. coli (ATCC 10798) [1]; [9]): > 160 µg/mL; MBC (E. coli (ATCC 10798) [1]; [11]): >160 µg/mL; MIC (E. coli (ATCC 10798) [1]; [11]): 140 µg/mL (≈ 267 µM); MBC (E. coli (ATCC 10798) [2]; [12]): > 160 µg/mL; MBC (E. coli (ATCC 10798) [2]; ATCC10798, Table 3, E. coli (ATCC 10798), with novobiocin): 140 µg/mL
C[C@H](CCCN(C)Cc1ccccc1)[C@H]1CC[C@H]2[C@@H]3[C@H](OCCCCN)C[C@@H]4C[C@H](OCCCCN)CC[C@]4(C)[C@H]3C[C@H](OCCCCN)[C@]12C [Compound 3]	–	6 µg/mL (≈ 8.44 µM)	–	–	–	–	–	–	1.5 µg/mL	MIC [3, 8]: 16 µg/mL (≈ 22.5 µM); concentration required to lower the MIC of erythromycin from 240 µg/mL to 5 µg/mL [4]: 6 µg/mL
